According to ChEMBL document CHEMBL3351300, “GnRH antagonists: the promise of treating sex-hormone-related diseases” (ACS Med Chem Lett, 2014):

Each compound was assayed against T1, Gonadotropin-releasing hormone receptor (Homo sapiens, UniProt P30968) (assay: Antagonist activity against human GnRH receptor expressed in CHO cells by IP-one HTRF assay).
T1 sequence (P30968 whole entry): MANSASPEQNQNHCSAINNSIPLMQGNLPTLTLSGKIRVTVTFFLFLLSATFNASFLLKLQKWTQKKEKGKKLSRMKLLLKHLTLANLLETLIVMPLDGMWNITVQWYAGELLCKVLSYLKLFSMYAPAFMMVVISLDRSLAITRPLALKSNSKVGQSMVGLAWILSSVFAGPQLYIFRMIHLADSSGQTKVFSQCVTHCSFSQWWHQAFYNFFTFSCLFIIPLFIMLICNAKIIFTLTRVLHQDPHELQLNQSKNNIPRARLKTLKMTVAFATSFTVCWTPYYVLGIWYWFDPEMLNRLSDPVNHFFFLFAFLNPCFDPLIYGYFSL
Assay type: cell-based

Structure (SMILES)	IC50
N#Cc1cccc(S(=O)(=O)N2c3ccc(C(=O)NCc4ncc(C(F)(F)F)cc4F)cc3C3(CCS(=O)(=O)CC3)C2C2CC2)c1 (single isomer, unassigned; enantiomer 1)	107 nM
O=C(NCc1ncc(C(F)(F)F)cc1Cl)c1ccc2c(c1)C1(CCS(=O)(=O)CC1)C(C1CC1)N2S(=O)(=O)c1ccc(Cl)cc1 (single isomer, unassigned; enantiomer 2)	5.5 nM
O=C(NCc1ncc(C(F)(F)F)cc1Cl)c1ccc2c(c1)C1(CCS(=O)(=O)CC1)C(C1CC1)N2S(=O)(=O)c1ccc(Cl)cc1 (single isomer, unassigned; enantiomer 1)	9350 nM

Further compounds by falling IC50, results first:

IC50	Structure (SMILES)
4210 nM	O=C(NCc1ncc(C(F)(F)F)cc1Cl)c1ccc2c(c1)C1(CCS(=O)(=O)CC1)C(C1CC1)N2S(=O)(=O)c1cccc(OC(F)(F)F)c1 (single isomer, unassigned; enantiomer 2)
4080 nM	O=C(NCc1ncc(Cl)cc1C(F)(F)F)c1ccc2c(c1)C1(CCS(=O)(=O)CC1)C(C1CC1)N2S(=O)(=O)c1ccc(F)cc1 (single isomer, unassigned; enantiomer 2)
2310 nM	N#Cc1cccc(S(=O)(=O)N2c3ccc(C(=O)NCc4ncc(C(F)(F)F)cc4F)cc3C3(CCS(=O)(=O)CC3)C2C2CC2)c1 (single isomer, unassigned; enantiomer 2)
68 nM	O=C(NCc1ncc(C(F)(F)F)cc1Cl)c1ccc2c(c1)C1(CCS(=O)(=O)CC1)C(C1CC1)N2S(=O)(=O)c1cccc(OC(F)(F)F)c1 (single isomer, unassigned; enantiomer 1)
3.3 nM	O=C(NCc1ncc(Cl)cc1C(F)(F)F)c1ccc2c(c1)C1(CCS(=O)(=O)CC1)C(C1CC1)N2S(=O)(=O)c1ccc(F)cc1 (single isomer, unassigned; enantiomer 1)
